Data as given in publication PMC10180428, “α-Glucosidase Inhibitors from Two Mangrove-Derived Actinomycetes” (Molecules, 2023).
Where two headings read alike, the source gives them in different places.

Assays:
[1] = In vitro cytotoxicity MTT assay; type: cell-based; settings: human
Description: To preliminarily evaluate the safety of the AGS inhibitors, the in vitro cytotoxicity of 3, 8, 9, 11, 14, 16, and 17 toward human normal hepatocyte (LO2) cells was tested by MTT assay. […] Since cancer and diabetes are linked, these compounds need to be evaluated for cytotoxicity against a panel of cancer cell lines to assess their safety profile at least in vitro in future studies.
The LO2 cell line was cultured in a 1640 medium supplemented with 10% fetal bovine serum, 100 U/mL of penicillin, and 0.1 mg/mL of streptomycin in a humidified incubator with a 5% CO2 atmosphere at 37 °C. The cells were seeded in 96-well plates at a density of 3 × 10^3 cells per well. After 12 h, the medium in the wells was replaced by 100 µL of fresh medium containing drugs of six different concentrations. After incubation for another 48 h, the medium was removed and the fresh medium containing 10 µL of MTT (5 mg/mL) were added to each well and incubated for 4 h. Then, the medium was replaced by 100 µL of DMSO to dissolve the formazan crystals. OD570 was detected on a microplate reader. Parallel triplicate replication was performed for each dose, and the IC50 values were calculated.

α-Glucosidase (AGS) [2] = molecular target: T1, α-Glucosidase (AGS) (Saccharomyces cerevisiae, UniProt P53341); experiment: Inhibition kinetics analysis (Lineweaver–Burk plots and secondary plots); type: biochemical; settings: for inhibition type against AGS: Lineweaver–Burk plots
Description: Although several 2,5-DKP containing cyclodipeptides have been reported to inhibit the activity of AGS to different extents, little is known on the inhibition kinetics of these inhibitors. Herein, the inhibition kinetic mechanisms of 3, 8, 9, 11, 14, 16, and 17 against AGS were analyzed using the Lineweaver–Burk plots. The inhibition constants Ki and Ki’ of the inhibitors were calculated by secondary plots of “slope versus [I]” and “Y-intercept versus [I]”, respectively. […] This postulation was reinforced by the varied Km/Vmax values which were not in accordance with uncompetitive inhibition. However, the replots of the slope and y-intercept versus the concentration of 14 and 17 were not linearly fitted, which limited the application of Equations (3) and (4). […] It was interesting that seven cyclodipeptide congeners tended to inhibit the activity of AGS in four different manners, which was proposed to be caused by different substitutions on the 2,5-DKP moiety.
The mode of inhibition was determined by the Lineweaver–Burk plot using GraphPad Prism 8.0 software. The Km and Vmax values were obtained from the slope and y-axis intercept of the Lineweaver–Burk plot based on Equations (1) and (2):(1) Vmax=1/Y-intercept (2) Km=slope× Vmax
The Ki and Ki’ values were calculated by secondary plotting of the slope and y-intercept on the Lineweaver–Burk plot versus the inhibitor [I] based on Equations (3) and (4):(3) Slope=Km/Vmax+Km[I]/VmaxKi (4) Y-intercept=1/Vmax+[I]/VmaxKi^′

α-Glucosidase (AGS) [3] = molecular target: T1, α-Glucosidase (AGS); experiment: biochemical; settings: read-out: AGS inhibitory activity IC50
Description: The AGS inhibitory activity was evaluated following the methods reported in the literature.

[4] = inhibitor concentration 0.05 mM
[5] = inhibitor concentration 0.08 mM
[6] = inhibitor concentration 0.10 mM
[7] = secondary plot of Y-intercept versus [I], binding to AGS-substrate complex, read-out: Ki
[8] = inhibitor concentration 0.04 mM
[9] = inhibitor concentration 0.09 mM
[10] = inhibitor concentration 0.06 mM
[11] = inhibitor concentration 0.07 mM

T1 sequence (P53341 whole entry): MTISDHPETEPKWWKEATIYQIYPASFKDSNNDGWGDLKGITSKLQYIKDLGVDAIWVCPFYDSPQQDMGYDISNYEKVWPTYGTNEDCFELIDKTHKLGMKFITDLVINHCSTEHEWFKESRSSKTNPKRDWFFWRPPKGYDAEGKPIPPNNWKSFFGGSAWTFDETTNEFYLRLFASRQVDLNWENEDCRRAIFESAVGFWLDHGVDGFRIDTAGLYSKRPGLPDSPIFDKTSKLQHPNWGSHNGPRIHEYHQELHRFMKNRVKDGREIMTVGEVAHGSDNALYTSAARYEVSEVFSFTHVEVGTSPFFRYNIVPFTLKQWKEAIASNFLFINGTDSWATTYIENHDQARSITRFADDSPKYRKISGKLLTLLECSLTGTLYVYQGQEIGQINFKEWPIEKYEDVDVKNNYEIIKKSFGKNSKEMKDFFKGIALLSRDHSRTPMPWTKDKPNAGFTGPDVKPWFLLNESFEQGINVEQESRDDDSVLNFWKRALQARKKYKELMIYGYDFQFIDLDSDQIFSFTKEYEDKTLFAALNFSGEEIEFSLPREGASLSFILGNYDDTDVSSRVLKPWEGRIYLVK

Structure (SMILES)	IC50 at 48 h [1] [µM]	Ki (α-Glucosidase (AGS) [2]) [µM]	inhibition type against AGS (α-Glucosidase (AGS) [2])	Vmax (α-Glucosidase (AGS) [2]; [4]) [µM/min]	Vmax (α-Glucosidase (AGS) [2]; [5]) [µM/min]	Vmax (α-Glucosidase (AGS) [2]; [6]) [µM/min]	Ki (α-Glucosidase (AGS) [2]; [7]) [µM]	IC50 (α-Glucosidase (AGS) [3]) [µM]	Vmax (α-Glucosidase (AGS) [2]; [8]) [µM/min]	Vmax (α-Glucosidase (AGS) [2]; [9]) [µM/min]	IC50 at 48 h ([1]; LO2 cells (human normal hepatocyte cell line), MTT, 48 h incubation, read-out: Cytotoxicity IC50 against LO2 cells) [µM]	Vmax (α-Glucosidase (AGS) [2]; inhibitor concentration 0.02 mM) [µM/min]	Vmax (α-Glucosidase (AGS) [2]; inhibitor concentration 0.03 mM) [µM/min]	Vmax (α-Glucosidase (AGS) [2]; [10]) [µM/min]	Ki (α-Glucosidase (AGS) [2]; secondary plot of slope versus [I], binding to free AGS, read-out: Ki) [µM]	Vmax (α-Glucosidase (AGS) [2]; [11]) [µM/min]	Vmax (α-Glucosidase (AGS) [2]; inhibitor concentration 0.20 mM) [µM/min]
CC[C@H](C)[C@@H]1NC(=O)[C@H](CC(C)C)NC1=O [Compound 16, cyclo(L-Leu-L-Ile)]	> 100	59.8	mixed-type manner	1.07 ± 0.13	0.86 ± 0.11	0.74 ± 0.07	78.89	74 ± 1.25									
O=C1NC(Cc2ccccc2)C(=O)NC1CO [Compound 14, cyclo(L-Ser-L-Phe)]	> 100		competitive inhibitor			0.83 ± 0.18		62.2 ± 0.11	0.81 ± 0.06	0.76 ± 0.04							
O=C1N[C@@H](Cc2c[nH]c3ccccc23)C(=O)N2CCC[C@@H]12 [Compound 8, cyclo(L-Pro-L-Trp)]		43.9	non-competitive inhibitors		0.41 ± 0.03		46.28	53.8 ± 1.88			> 100	0.85 ± 0.05	0.66 ± 0.03				
COC1CCC=C(C)C(=O)Nc2cc(O)cc(c2)CC(C)CC(OC)C(O)C(C)C=C(C)C1OC(N)=O (stereo not shown) [Compound 3, autolytimycin]	> 100		non-competitive inhibitors		0.46 ± 0.03		53.10	35.8 ± 0.4	0.86 ± 0.03					0.67 ± 0.04	49.2		
CC[C@H](C)[C@@H]1NC(=O)[C@H](Cc2ccc(O)cc2)NC1=O [Compound 11, cyclo(L-Ile-L-Tyr)]	> 100	95.5	mixed-type manner				531.53	101 ± 2.52		0.90 ± 0.05				0.98 ± 0.05		0.94 ± 0.02	
O=C1N[C@@H](Cc2c[nH]c3ccccc23)C(=O)N[C@H]1CO [Compound 9, cyclo(L-Ser-L-Trp)]	> 100	149	mixed-type manner	1.33 ± 0.17	1.11 ± 0.14		238.78	164 ± 15.5									0.89 ± 0.22
C[C@@H]1NC(=O)[C@@H]2CCCN2C1=O [Compound 17, cyclo(L-Ala-L-Pro)]	> 100		non-competitive and uncompetitive mixed-type of inhibition					56.75 ± 0.32		0.47 ± 0.01				0.79 ± 0.02		0.66 ± 0.03	
